Measured values published in patent US7312237B2, “Combination of epothilone analogs and chemotherapeutic agents for the treatment of prolilferative diseases” (Bristol-Myers Squibb Co., priority 2001, dated 2007).

What was measured:
[1] = tested on: A2780 human ovarian carcinoma; assay: In vivo antitumor testing, A2780 in nude rats
Method: (§1) The MTD was frequently equivalent to OD. When death occurs, the day of death was recorded.
(§2) And, Log cell kill=T−C÷(3.32×TVDT)
A2780 grown in nude rats was also utilized.

[2] = In vivo antitumor testing, Pat-7 in nude rats; conditions: nude, rat, in vivo, iv; read-out: OD (optimal dose or MTD)
Method: as §1, §2

[3] = tested on: Pat-7 human ovarian carcinoma; assay: In vivo antitumor testing, Pat-7 in nude rats; conditions: Expt. 15, nude rats, IV q8dx2, OD 3 mg/kg
Method: as §1, §2

[4] = tested on: tubulin isolated from calf brain; assay: Tubulin polymerization assay; format: biochemical
[5] = human, in vivo
[6] = tested on: panel of tumor cell lines; assay: Oncology Diverse Cell Assay, panel of 21 cell lines; format: cell-based; conditions: 18 of the 21 cell lines tested
Method: Bar graphs, on the right, depict the IC50 values of the cell lines listed on the left hand column (top to bottom).
(§3) The in vitro cytotoxicity was assessed in tumor cells by a tetrazolium-based colorimetric assay which takes advantage of the metabolic conversion of MTS (3-(4,5-dimethylthiazol-2-yl)-5-(3-carboxymethoxyphenyl)-2-(4-sulphenyl)-2H-tetrazolium, inner salt) to a reduced form that absorbs light at 492 nm. Cells were seeded 24 hr prior to drug addition. Following a 72 hour incubation at 37° C. with serially diluted compound, MTS, in combination with the electron coupling agent phenazine methosulfate, was added to the cells. The incubation was continued for 3 hours, then the absorbancy of the medium at 492 nm was measured with a spectrophotometer to obtain the number of surviving cells relative to control populations. The results are expressed as median cytotoxic concentrations (IC50 values).

[7] = tested on: HCT116 cells; assay: Mitotic blockade (cell cycle progression); format: cell-based, human; conditions: 7.5 nM, 8 hours
[8] = tested on: HCT116 human colon carcinoma cell line; assay: Clonogenic cell colony-formation assay (single agent and combination, isobologram); format: cell-based; conditions: concentration killing clonogenic HCT-116 cells by 90%
Excerpt: Analysis of the effects of combination treatment in vitro was by the isobologram and multiplicity methods described by Stephens and Steel
The success of an anticancer agent is dependent not only on its antitumor activity as a single agent but also on its ability to combine successfully with other antineoplastic drugs.

[9] = tested on: Pat-21 breast carcinoma; conditions: Expt. R667, IV q4dx3; 41, 68, OD 10 mg/kg; interim analysis, study in progress
Excerpt: The following tumors were passaged in the indicated host strain of mouse: murine M5076 fibrosarcoma (M5076) in C57Bl/6 mice; human A2780 and Pat-7 ovarian carcinomas, HCT116, HCT116/VM46 and LS174T colon carcinoma, Pat-21 breast carcinoma in nude mice. Tumor passage occurred biweekly for murine tumors and approximately every two to eight weeks for the various human tumor lines. With regard to efficacy testing, M5076 tumors were implanted in (C57Bl/6×DBA/2)F1 hybrid mice, and human tumors were implanted in nude mice. All tumor implants for efficacy testing were subcutaneous (sc).
The required number of animals needed to detect a meaningful response were pooled at the start of the experiment and each was given a subcutaneous implant of a tumor fragment (·50 mg) with a 13-gauge trocar. For treatment of early-stage tumors, the animals were again pooled before distribution to the various treatment and control groups. For treatment of animals with advanced-stage disease, tumors were allowed to grow to the predetermined size window (tumors outside the range were excluded) and animals were evenly distributed to various treatment and control groups. Treatment of each animal was based on individual body weight. Treated animals were checked daily for treatment related toxicity/mortality. Each group of animals was weighed before the initiation of treatment (Wt1) and then again following the last treatment dose (Wt2). The difference in body weight (Wt2−Wt1) provides a measure of treatment-related toxicity.
Tumor weights (mg) were estimated from the formula: Tumor weight=(length×width^2)÷2
Antitumor activity was evaluated at the maximum tolerated dose (MTD) which is defined as the dose level immediately […] which excessive toxicity (i.e. more than one death) occurred. […] When death occurs, the day of death was recorded. […]
To estimate tumor cell kill, the tumor volume doubling time was first calculated with the formula: […]

[10] = tested on: HCT116/VM46; assay: In vitro cytotoxicity (MTS assay), HCT116/VM46; format: cell-based, human
[11] = tested on: HCT-116; assay: In vitro cytotoxicity (MTS assay), HCT-116; format: cell-based; conditions: Homo sapiens; HCT-116, 72 hour incubation
Method: HCT116 human carcinoma cell lines and HCT116/VM46 cells, a MDR variant, were maintained in McCoy's 5A medium (GIBCO) and 10% heat inactivated fetal bovine serum (GIBCO). A2780 human ovarian carcinoma cells and A2780Tax cells obtained from Dr. Antonio Fojo (NCI, Bethesda, Md.) were maintained in IMEM (GIBCO) and 10% fetal bovine serum (GIBCO).
as §3

[12] = In vivo antitumor testing, M5076 murine sarcoma; set-up: species or system mice; conditions: (C57Bl/6×DBA/2)F1 hybrid, mouse, in vivo, iv, Compound 1 IV, read-out: OD (optimal dose or MTD)
Method: (§4) The murine fibrosarcoma M5076 was also employed.
(§5) The human tumors were maintained in Balb/c nu/nu nude mice. M5076 was maintained in C57BL/6 mice. Tumors were propagated as subcutaneous transplants in the appropriate mouse strain using tumor fragments obtained from donor mice.
(§6) All tumor implants for efficacy testing were subcutaneous (sc).
as §1, §2

[13] = tested on: M5076 murine fibrosarcoma; assay: In vivo antitumor testing, M5076 murine sarcoma; set-up: species or system mice
Method: as §4, §5, §6, §1, §2

[14] = tested on: normal mouse lung fibroblast cell line MLF; assay: In vitro cytotoxicity (MTS assay), MLF; format: cell-based
Method: as §3

Which results are given for `C/C(=C\c1csc(C)n1)[C@@H]1C[C@@H]2O[C@]2(C)CCC[C@H](C)[C@H](O)[C@@H](C)C(=O)C(C)(C)[C@@H](O)CC(=O)N1` (relative stereo) [Compound 1, [1S-[1R*,3R*(E),7R*,10S*,11R*,12R*,16S*]]-7,11-dihydroxy-8,8,10,12,16-pentamethyl-3-[1-methyl-2-(2-methyl-4-thiazolyl)ethenyl]-4-aza-17-oxabicyclo[14.1.0] heptadecane-5,9-dione]?
MTD ([1]; Compound 1, every 2 days x5, nude rats): 1.2 mg/kg/inj; LCK ([1]; nude rats, every 2 days x5, MTD 1.2 mg/kg/inj): 0.3; MTD [2]: 3 mg/kg; LCK (gross log cell kill) [3]: >5; cures/total [3]: 4 of 6 and (4/6); Ratio of Polymerization Potency of Analog/Paclitaxel [4]: 0.4; dose recommended for Phase II clinical trials [5]: 50 mg/m2; IC50 [6]: 1.4 to 6 nM; block of cells in mitosis [7]: almost completely blocks cells in mitosis; IC90 [8]: ~7.5 nM; LCK (gross log cell kill) [9]: >1.5^5; IC50 ([10]; Homo sapiens, HCT-116/VM46, HCT116/VM46 (MDR), 72 hour incubation): 24.5 nM; resistance ratio (R/S) ([10]; IC50 HCT116/VM46 versus sensitive HCT116): 9.4; IC50 [11]: 2.6 nM; MTD ([12]; q2dx5): 8.4 mg/kg; MTD ([12]; q4dx3): 24 mg/kg; LCK (gross log cell kill) ([13]; Expt. 159, IV q2dx5, OD 8.4 mg/kg): 0.5; LCK (gross log cell kill) ([13]; Expt. 162, IV q2dx5, OD 8.4 mg/kg): 0.7; LCK (gross log cell kill) ([13]; Expt. 172, IV q4dx3, OD 24 mg/kg): 1.0; IC50 [14]: 34.5 nM
